Where “and” joins values, the source holds several entries; their conditions need not be identical. Equal entries are not always repeated.

The nature of one data set: GC-MS head space ratio of perfume raw materials with versus without polyamine polymer (R). It is filed as physicochemical. To be noted: aqueous fabric refresher formulation pH 6.8, 0.05% Lupamin 1595; head space after 1 hr room temperature and 20 minutes at 40° C.; Control without polyamine polymer = 1.000. How it is done:
R=head space of aqueous composition containing polyamine/head space of aqueous composition nil polyamine polymer
Polyamine polymer perfume interactions were studied in aqueous fabric refresher formulations. Aqueous formulations containing a perfume mixture and a polyamine polymer was prepared according to Table 2 and studied against a control fabric refresher formulation without a polyamine polymer. Studies were conducted using 500 ppm (0.05%) polyamine polymer and perfume mixtures at 2 levels (500 ppm (0.05%) and 10,000 ppm […]).
GC-MS was used to study polymer perfume aldehyde interactions using the formulations prepared in Example 1. For the GC-MS analysis, 2 ml of each sample was transferred into 20 ml headspace vial, equilibrated at room temperature for 1 hr, and incubated at 40° C. for 20 minutes. Then, 1 ml of head space was injected into GC-MS using 1 to 10 split, and perfume raw material intensities were measured. Perfume raw material peak area ratios were then calculated using the control sample without a polyamine polymer.
PRMs that react with polyamine polymer have a headspace concentration less than 1.00 with respect to the normalized Control.
For the compound `COc1ccc(C=O)cc1` [p-Anisaldehyde], the “GC-MS head space peak area ratio normalized to Control” value came out at 1.521. In the case of `CCC/C=C/C=O` [Trans-2-hexenal], the “GC-MS head space peak area ratio normalized to Control” value was 0.226.

Turning to `O=CCCC=C1CC2CC1C1CCCC21` (stereo not drawn) [Dupical], the “GC-MS head space peak area ratio normalized to Control” value is recorded as 0.932. For `CCCCCCCCCC(C)C=O` (stereo not drawn) [Methyl Nonyl Acetaldehyde], the “GC-MS head space peak area ratio normalized to Control” value turned out to be 0.772. Consider `CCCCCCC(C=O)=Cc1ccccc1` [Hexylcinnamicaldehyde], for which the “GC-MS head space peak area ratio normalized to Control” value was 1.480. Consider `CC(C)=CCCC(C)CC=O` (stereo not drawn) [Citronellal], for which the “GC-MS head space peak area ratio normalized to Control” value is on record as 2.597. For the compound `CC(C)CCCC(C)CC=O` (stereo not drawn) [Tetrahydrogeranial], the “GC-MS head space peak area ratio normalized to Control” value is listed as 0.415. With `CCCC(C)C=O` (stereo not drawn) [2-methyl petanal], the “GC-MS head space peak area ratio normalized to Control” value came out at 0.864.

Take `CC(=O)c1ccc(C(C)=O)cc1` [1,4-diacety lbenzene]: the “GC-MS head space peak area ratio normalized to Control” value turned out to be 0.913. Same read-out and setting: under `C=C(C)C1CC=C(C)C(=O)C1` (stereo not drawn) [Carvone] stands 1.103.

Consider `CCCCCCCCC=O` [Nonaldehyde], for which the “GC-MS head space peak area ratio normalized to Control” value is on record as 0.209.

Turning to `CC(=O)c1cccs1` [2-acetyl thiophene], the “GC-MS head space peak area ratio normalized to Control” value worked out at 0.794. Turning to `C/C=C/C(=O)C1C(C)C=CCC1(C)C` (stereo not drawn) [Delta-damascone], the “GC-MS head space peak area ratio normalized to Control” value was 1.228. On to `CC(=O)/C=C/C1=C(C)CCCC1(C)C` [Beta Ionone], for which the “GC-MS head space peak area ratio normalized to Control” value was determined as 1.222. On the same count and under the same terms, under `CCCCCC=O` [Hexanal] stands 0.222; under `CCCCCCCCC(C)C=O` (stereo not drawn) [Methyl Octyl acetaldehyde], 0.836. With `CC(C)=CCCC(C)CCCC(C)C=O` (stereo not drawn) [Adoxal], the “GC-MS head space peak area ratio normalized to Control” value is recorded as 0.751. Take `CCCCCCCCCCCC=O` [Lauric Aldehyde]: the “GC-MS head space peak area ratio normalized to Control” value was 0.169. As for `O=Cc1ccccc1` [Benzaldehyde], the “GC-MS head space peak area ratio normalized to Control” value was 1.030. For `CC(C)c1ccc(C=O)cc1` [Cuminaldehyde], the “GC-MS head space peak area ratio normalized to Control” value is 0.977. On the same count and under the same terms, under `CCCCCCCCCCC=CC=O` [Tridecenal] stands 0.470. As for `CC(C)=CCC/C(C)=C\C=O` [Neral], the “GC-MS head space peak area ratio normalized to Control” value came to 0.261.

The data set is the same for the next values; noted with them: aqueous fabric refresher formulation pH 6.8, 0.05% Lupamin 1595; head space after 1 hr room temperature and 20 minutes at 40° C.; Control without polyamine polymer = 1.000; listed as Kaovone.
For the compound `CC(=O)/C(C)=C(/C)C(C)C(C)(C)C` (stereo not drawn) [Koavone], the “GC-MS head space peak area ratio normalized to Control” value is 1.185 and 1.159 and 1.171.

The same data set, now with this note: head space with polyamine polymer / head space nil polyamine polymer.
With `COc1ccc(C=O)cc1` [p-Anisaldehyde], the “Obs. Lupamin Ratio” value came out at 1.52. Turning to `CC(C)CCCC(C)CC=O` (stereo not drawn) [Tetrahydrogeranial], the “Obs. Lupamin Ratio” value worked out at 0.42. In the case of `O=CC1CCC2C3CCC(C3)C12` (stereo not drawn) [Melozone], the “Obs. Lupamin Ratio” value was determined as 0.28. As to `CC(C)=CCC/C(C)=C/C=O` [Citral], the “Obs. Lupamin Ratio” value came to 0.23. The same measure, in the same setting: the same measure for `CCCCCCCCC=O` [Nonaldehyde]: 0.21; for `CC(C)=CCCC(C)CCCC(C)C=O` (stereo not drawn) [Adoxal]: 0.79. Regarding `O=Cc1ccc2c(c1)OCO2` [Heliotropin], the “Obs. Lupamin Ratio” value is given as 1.65. Regarding `CC1(C)CCc2ccc(CCC=O)cc21` [Hivernal], the “Obs. Lupamin Ratio” value was 0.17. With `CC(=O)/C(C)=C(/C)C(C)C(C)(C)C` (stereo not drawn) [Koavone], the “Obs. Lupamin Ratio” value is on record as 1.17.

Test in the next data set: not given
To be noted: ambient temperature; cited from earlier work.
Take “hydroxypropyl modified beta cyclodextrin”: the “water solubility (benchmark)” value is listed as ≥ 60 g/100 ml.
